Test results from ChEMBL document CHEMBL1201862, “PubChem BioAssay data set” (2004).
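The compound was tested at five concentrations on cells cultured in 96-well plates, with a 48-hour exposure period. Abbreviation: GI50, concentration required for 50% inhibition of growth.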 Active and inactive are the calls of the source. Cut-off read from the data, not from the text of the source: active = GI50 up to about 1.1 µM and inactive = higher.

Assays:
Test in all cases: growth of human tumour cells (NCI), 48 h
A498 = test system: A498
CCRF-CEM = test system: CCRF-CEM
DU-145 = test system: DU-145
SW-620 = test system: SW-620
SN12C = test system: SN12C
SK-MEL-28 = test system: SK-MEL-28
Malme-3M = test system: Malme-3M
A549 = test system: A549
CAKI-1 = test system: CAKI-1
MCF7 = test system: MCF7
OVCAR-8 = test system: OVCAR-8
786-0 = test system: 786-0
ACHN = test system: ACHN
SR = test system: SR
OVCAR-4 = test system: OVCAR-4
U-251 = test system: U-251
OVCAR-5 = test system: OVCAR-5
RXF 393 = test system: RXF 393
SF-539 = test system: SF-539
HCC 2998 = test system: HCC 2998

In the case of `CN(CC(=O)O)Cc1c(O)c(Cl)cc(Cl)c1Cl`, the GI50 (A498) is reported as 46.1 µM (inactive), the GI50 (CCRF-CEM) is reported as 5.13 µM (inactive) and the GI50 (DU-145) is reported as 34.4 µM (inactive). For the same molecule, the GI50 (SW-620) was 40.5 µM (inactive), the GI50 (SN12C) was 47 µM (inactive) and the GI50 (SK-MEL-28) was 24.5 µM (inactive). For the same molecule, the GI50 (Malme-3M) was 27.4 µM (inactive), the GI50 (A549) was 53.7 µM (inactive) and the GI50 (CAKI-1) was 61.8 µM (inactive). The GI50 (MCF7) was 17.9 µM (inactive), the GI50 (OVCAR-8) was 29.2 µM (inactive) and the GI50 (786-0) was 15.8 µM (inactive). The GI50 (ACHN) was 36.5 µM (inactive), the GI50 (SR) was 5.55 µM (inactive) and the GI50 (OVCAR-4) was 33.6 µM (inactive). For the same molecule, the GI50 (U-251) was 17 µM (inactive), the GI50 (OVCAR-5) was 26.5 µM (inactive) and the GI50 (RXF 393) was 76.4 µM (inactive). For the same molecule, the GI50 (SF-539) was 22.4 µM (inactive).
`CCOC(=O)CCc1cccc2c1oc1c(CCNC(=O)OCC3c4ccccc4-c4ccccc43)cccc12` was tested, and the GI50 (A498) was > 100 µM (inactive), the GI50 (CCRF-CEM) was > 100 µM (inactive) and the GI50 (DU-145) was > 100 µM (inactive). For the same molecule, the GI50 (SW-620) was > 100 µM (inactive), the GI50 (SN12C) was > 100 µM (inactive) and the GI50 (SK-MEL-28) was > 100 µM (inactive). For the same molecule, the GI50 (Malme-3M) was 18.1 µM (inactive), the GI50 (A549) was > 100 µM (inactive) and the GI50 (CAKI-1) was 12.9 µM (inactive). For the same molecule, the GI50 (MCF7) was 36.4 µM (inactive), the GI50 (OVCAR-8) was 24.9 µM (inactive) and the GI50 (786-0) was 37.2 µM (inactive). For the same molecule, the GI50 (ACHN) was 44.3 µM (inactive), the GI50 (SR) was 22.5 µM (inactive) and the GI50 (OVCAR-4) was > 100 µM (inactive). The GI50 (U-251) was 57.3 µM (inactive), the GI50 (OVCAR-5) was > 100 µM (inactive) and the GI50 (HCC 2998) was > 100 µM (inactive).
For `O=c1[nH]nc(Cc2ccccc2)n1Nc1ccccc1`, the GI50 (A498) was > 100 µM (inactive), the GI50 (CCRF-CEM) was > 100 µM (inactive) and the GI50 (DU-145) was > 100 µM (inactive). The GI50 (SW-620) was > 100 µM (inactive), the GI50 (SN12C) was > 100 µM (inactive) and the GI50 (SK-MEL-28) was > 100 µM (inactive). The GI50 (Malme-3M) was > 100 µM (inactive), the GI50 (A549) was > 100 µM (inactive) and the GI50 (CAKI-1) was 46.3 µM (inactive). For the same molecule, the GI50 (MCF7) was > 100 µM (inactive), the GI50 (OVCAR-8) was > 100 µM (inactive) and the GI50 (786-0) was > 100 µM (inactive). For the same molecule, the GI50 (ACHN) was > 100 µM (inactive), the GI50 (SR) was > 100 µM (inactive) and the GI50 (OVCAR-4) was > 100 µM (inactive). For the same molecule, the GI50 (U-251) was > 100 µM (inactive), the GI50 (OVCAR-5) was > 100 µM (inactive) and the GI50 (HCC 2998) was > 100 µM (inactive). The GI50 (SF-539) was > 100 µM (inactive).
`CCOC(=O)CN1CC(C2=C(O)CN(CC(=O)OCC)C2=O)=CC1=O` was tested, and the GI50 (A498) was > 100 µM (inactive), the GI50 (CCRF-CEM) was > 100 µM (inactive) and the GI50 (DU-145) was > 100 µM (inactive). The GI50 (SW-620) was > 100 µM (inactive), the GI50 (SN12C) was > 100 µM (inactive) and the GI50 (SK-MEL-28) was > 100 µM (inactive). For the same molecule, the GI50 (Malme-3M) was > 100 µM (inactive), the GI50 (A549) was > 100 µM (inactive) and the GI50 (CAKI-1) was > 100 µM (inactive). The GI50 (MCF7) was > 100 µM (inactive), the GI50 (OVCAR-8) was > 100 µM (inactive) and the GI50 (786-0) was > 100 µM (inactive). The GI50 (ACHN) was > 100 µM (inactive), the GI50 (SR) was > 100 µM (inactive) and the GI50 (OVCAR-4) was > 100 µM (inactive). The GI50 (U-251) was > 100 µM (inactive), the GI50 (OVCAR-5) was > 100 µM (inactive) and the GI50 (HCC 2998) was > 100 µM (inactive). The GI50 (SF-539) was > 100 µM (inactive).
With `CO/N=C1\CCC2(O)C3Cc4ccc(O)c5c4C2(CCN3CC2CC2)[C@H]1O5` (stereo not given in full) the GI50 (A498) was > 100 µM (inactive), the GI50 (CCRF-CEM) was > 100 µM (inactive) and the GI50 (DU-145) was > 100 µM (inactive). The GI50 (SW-620) was > 100 µM (inactive), the GI50 (SN12C) was > 100 µM (inactive) and the GI50 (SK-MEL-28) was > 100 µM (inactive). The GI50 (Malme-3M) was > 100 µM (inactive), the GI50 (A549) was > 100 µM (inactive) and the GI50 (CAKI-1) was > 100 µM (inactive). For the same molecule, the GI50 (MCF7) was > 100 µM (inactive), the GI50 (OVCAR-8) was > 100 µM (inactive) and the GI50 (786-0) was > 100 µM (inactive). For the same molecule, the GI50 (ACHN) was > 100 µM (inactive), the GI50 (SR) was > 100 µM (inactive) and the GI50 (OVCAR-4) was > 100 µM (inactive). The GI50 (U-251) was > 100 µM (inactive), the GI50 (OVCAR-5) was > 100 µM (inactive) and the GI50 (SF-539) was > 100 µM (inactive).
`CCOC(=O)[C@@]1(C)CC(O)C(=O)N1C` (stereo not given in full) was tested, and the GI50 (CCRF-CEM) was > 100 µM (inactive), the GI50 (DU-145) was > 100 µM (inactive) and the GI50 (SW-620) was > 100 µM (inactive). The GI50 (SN12C) was > 100 µM (inactive), the GI50 (SK-MEL-28) was > 100 µM (inactive) and the GI50 (Malme-3M) was > 100 µM (inactive). The GI50 (A549) was > 100 µM (inactive), the GI50 (CAKI-1) was > 100 µM (inactive) and the GI50 (MCF7) was > 100 µM (inactive). For the same molecule, the GI50 (OVCAR-8) was > 100 µM (inactive), the GI50 (786-0) was > 100 µM (inactive) and the GI50 (ACHN) was > 100 µM (inactive). For the same molecule, the GI50 (SR) was > 100 µM (inactive), the GI50 (OVCAR-4) was > 100 µM (inactive) and the GI50 (U-251) was > 100 µM (inactive). For the same molecule, the GI50 (OVCAR-5) was > 100 µM (inactive), the GI50 (HCC 2998) was > 100 µM (inactive) and the GI50 (RXF 393) was > 100 µM (inactive). For the same molecule, the GI50 (SF-539) was > 100 µM (inactive).
`COc1cc2c(cc1OCCN1CCN(CCOc3cc4c(cc3OC)C(=O)N3CCC[C@H]3C=N4)CC1)N=C[C@@H]1CCCN1C2=O` was tested, and the GI50 (A498) was 37.1 µM (inactive), the GI50 (DU-145) was 37.5 µM (inactive) and the GI50 (SW-620) was 19.2 µM (inactive). The GI50 (SN12C) was 9.46 µM (inactive), the GI50 (SK-MEL-28) was 60 µM (inactive) and the GI50 (Malme-3M) was 9.14 µM (inactive). The GI50 (A549) was > 88.9 µM (inactive), the GI50 (CAKI-1) was 14 µM (inactive) and the GI50 (MCF7) was 18.2 µM (inactive). For the same molecule, the GI50 (OVCAR-8) was 35.3 µM (inactive), the GI50 (786-0) was 17.8 µM (inactive) and the GI50 (ACHN) was > 39.1 µM (inactive). The GI50 (SR) was 0.362 µM (active), the GI50 (OVCAR-4) was > 100 µM (inactive) and the GI50 (U-251) was 24.8 µM (inactive). The GI50 (OVCAR-5) was 26.2 µM (inactive), the GI50 (RXF 393) was 26.1 µM (inactive) and the GI50 (SF-539) was 10.2 µM (inactive).
